The subject of assay [1] is UVB-irradiated human dermal fibroblasts (HDFs). Kind of assay: UVB-induced senescence assay: SA-β-Gal staining. The class given is cell-based. The following applies: UVB-irradiated HDF.
Assay [2] concerns H3K9ac (the target of SIRT1, SIRT2 and SIRT6). Kind of assay: Sirtuin activity assay in HDF: H3K9ac levels (Western blot).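 Also: screen looked for decreased acetylation as a sign of sirtuin activation.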 The class given is cell-based, human. The following applies: HDF treated 24h.

Experimental findings from PMC8148468, “Shikimic acid protects skin cells from UV-induced senescence through activation of the NAD+-dependent deacetylase SIRT1” (Aging (Albany NY), 2021) are described below.

For `O=C(O)C1=C[C@@H](O)[C@@H](O)[C@H](O)C1` [Shikimic acid], in assay [1], the “SA-β-Gal accumulation/staining” value is “significant decrease in SA-β-Gal accumulation”. Also, the “prevention of UV-induced cellular senescence” value in assay [1] (SA-β-Gal and HAS2 markers) is “prevented the development of senescence”. Further, the “effect on H3K9ac levels” value in assay [2] is “induced a similar effect on both targets”.
